Active and inactive are the calls of the source. The rule behind the calls is not given here.
How the values were obtained:
Brain [1] = experiment: tissue or blood; conditions: Rattus norvegicus, Sprague-Dawley Albino
[2] = biological target: Aldo-keto reductase family 1 member A1 (Rattus norvegicus, UniProt P51635)
Description: Inhibition of ALR1 in Sprague-Dawley Albino rat kidney

[3] = biological target: Aldo-keto reductase family 1 member B1 (Rattus norvegicus, UniProt P07943)
Description: Inhibition of ALR2 in Sprague-Dawley Albino rat lens

Brain [4] = experiment: tissue or blood; conditions: Rattus norvegicus, Sprague-Dawley Albino; remark: listed apart in the source
Brain [5] = conditions: Rattus norvegicus, Sprague-Dawley Albino, 10 uM

Chain of Aldo-keto reductase family 1 member A1 (P51635 whole entry, looked up): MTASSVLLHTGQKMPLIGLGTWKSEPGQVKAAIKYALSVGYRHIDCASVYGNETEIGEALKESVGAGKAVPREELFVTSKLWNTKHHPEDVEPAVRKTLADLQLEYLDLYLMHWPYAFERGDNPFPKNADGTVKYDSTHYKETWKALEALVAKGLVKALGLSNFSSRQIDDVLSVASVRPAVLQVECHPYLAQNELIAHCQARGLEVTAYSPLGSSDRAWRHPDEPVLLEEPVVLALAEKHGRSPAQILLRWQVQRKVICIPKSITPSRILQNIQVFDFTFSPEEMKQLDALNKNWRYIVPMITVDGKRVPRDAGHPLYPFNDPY
Description for physchem: Acid dissociation constant, pKa of the compound

Compound	IC50 [2] [µM]	IC50 [3] [µM]	pKa (physchem)	inhibition at 10 µM (Brain [1]) [%]	inhibition at 100 µM (Brain [4]) [%]	Activity (Brain [5])
COc1ccc(-c2cc(=O)n3cccc(O)c3n2)cc1OC	> 10	> 10	–	1.2	8.8	–
Cc1c(C)c2c(c(C)c1O)CC[C@@](C)(CCCC(C)CCCC(C)CCCC(C)C)O2 (single isomer, unassigned) [ALPHA-TOCOPHEROL]	–	–	–	–	18.2	–
O=c1cc(-c2ccc(O)c(O)c2)nc2c(O)cccn12	> 10	0.45	–	48.2	81.5	–
COc1ccc(-c2cc(=O)n3ccccc3n2)cc1	> 10	> 10	–	8.3	15.1	–
CC(=O)N(O)CCCCCNC(=O)CCC(=O)N(O)CCCCCNC(=O)CCC(=O)N(O)CCCCCN [DEFEROXAMINE]	–	–	–	–	72	–
O=c1cc(-c2ccccc2)nc2c(O)cccn12	> 10	> 10	10.2	5.9	11.9	–
COc1ccc(Cc2cc(=O)n3c(O)cccc3n2)cc1OC	> 10	> 10	–	25.8	45.1	–
COc1ccc(Cc2cc(=O)n3c(O)cccc3n2)cc1	> 10	> 10	–	18.9	42.4	–
O=c1cc(-c2ccccc2)nc2ccccn12	> 10	> 10	–	10.8	22.4	–

Continued, in another order:

IC50 [2] [µM]	IC50 [3] [µM]	pKa (physchem)	Compound	inhibition at 10 µM (Brain [1]) [%]	inhibition at 100 µM (Brain [4]) [%]	Activity (Brain [5])
> 10	55	–	O=c1cc(Cc2ccccc2)nc2cccc(O)n12	19.3	45.7	–
> 10	100	–	COc1ccc(-c2cc(=O)n3c(O)cccc3n2)cc1OC	28.5	64.7	–
> 10	12	–	O=c1cc(Cc2ccc(O)c(O)c2)nc2cccc(O)n12	56.7	89.9	–
> 10	> 10	–	COc1ccc(-c2cc(=O)n3cccc(O)c3n2)cc1	3.4	11.5	–
> 10	0.1	–	O=c1cc(-c2ccc(O)c(O)c2)nc2cccc(O)n12	66.5	85.9	–
> 10	0.67	6.8	O=c1cc(-c2ccc(O)c(O)c2)nc2ccccn12	26.6	71.6	–
> 10	> 10	–	COc1ccc(-c2cc(=O)n3ccccc3n2)cc1OC	–	18.8	inactive
> 10	4.56	7.6	O=c1cc(-c2ccc(O)cc2)nc2ccccn12	–	23.7	inactive
> 10	44	–	O=c1cc(Cc2ccc(O)cc2)nc2cccc(O)n12	11.5	51.4	–
> 10	0.74	–	COc1ccc(-c2cc(=O)n3c(O)cccc3n2)cc1	50.4	82.8	–
> 10	2.07	–	O=c1cc(-c2ccc(O)cc2)nc2c(O)cccn12	11.8	43.2	–
> 10	0.42	–	O=c1cc(-c2ccc(O)cc2)nc2cccc(O)n12	21.2	42.4	–

Reference: ChEMBL document CHEMBL1148805 (J Med Chem, 2007)
